One may read the IC50 as the midpoint of a concentration-inhibition curve. For orientation: melting point means the temperature, or range, at which the solid turns liquid.

In one series the test system is Human tumor cells. Description: Soft Agar Assay (anchorage-independent growth). Type of series: cell-based. To be noted: Homo sapiens, range stated for the group unless single. On the procedure:
Anchorage-independent growth is a characteristic of tumorigenic cell lines. Human tumor cells can be suspended in growth medium containing 0.3% agarose and an indicated concentration of a farnesyl transferase inhibitor. The solution can be overlayed onto growth medium solidified with 0.6% agarose containing the same concentration of farnesyl transferase inhibitor as the top layer. After the top layer is solidified, plates can be incubated for 10-16 days at 37° C. under 5% CO2 to allow colony outgrowth. After incubation, the colonies can be stained by overlaying the agar with a solution of MTT (3-[4,5-dimethyl-thiazol-2-yl]-2,5-diphenyltetrazolium bromide, Thiazolyl blue) (1 mg/mL in PBS). Colonies can be counted and the IC50's can be determined.
Compound `CCOC(=O)N1CCC([C@H]2c3ccc(Cl)cc3CCc3cc(Br)cnc32)CC1C(=O)N(CCCn1ccnc1)Cc1ccccc1` (single isomer, unassigned) [80 (Isomer A)] registered an IC50 of 2 to 300 nM.
For the compound `O=C(C1CC([C@H]2c3ccc(Cl)cc3CCc3cc(Br)cnc32)CCN1C(=O)NC1CCCCC1)N(CCCn1ccnc1)Cc1ccccc1` (single isomer, unassigned) [Example 79 Step B (Isomer A)], the half-inhibitory concentration (IC50) was in the range of 2 to 300 nM.
Still for that read-out and setting: to `Cc1cn(CCCN(Cc2ccccc2O)C(=O)[C@H]2CN([C@H]3c4ccc(Cl)cc4CCc4cccnc43)CCN2C(=O)OC2CCCCC2)cn1` (single isomer, unassigned) [Example 316] belongs 2 to 10 nM; to `Cc1cn(CCCN(Cc2ccccc2)C(=O)[C@@H]2CN([C@H]3c4ccc(Cl)cc4CCc4cccnc43)CCN2C(=O)OC2CCCCC2)cn1` (single isomer, unassigned) [Example 321], 2 to 10 nM.
The same measure, in the same setting: for `Cc1cn(CCCN(Cc2ccccc2Cl)C(=O)[C@H]2CN([C@H]3c4ccc(Cl)cc4CCc4cccnc43)CCN2C(=O)OC2CCCCC2)cn1` (single isomer, unassigned) [Example 324] the value was 2 to 10 nM.
`Cc1cncn1CCCN(Cc1ccccc1)C(=O)[C@H]1CN([C@H]2c3ccc(Cl)cc3CCc3cccnc32)CCN1C(=O)OC1CCCCC1` (single isomer, unassigned) [Example 325] registered an IC50 of 2 to 10 nM.
The same measure, in the same setting: for `Cc1cn(CCCN(Cc2ccccc2)C(=O)[C@H]2CN(C3c4ccccc4CCc4cccnc43)CCN2C(=O)OC2CCCCC2)cn1` (single isomer, unassigned) [Example 372] the value was 2 to 10 nM; for `Cc1cn(CCCN(Cc2ccccc2)C(=O)[C@H]2CN(C3c4ccc(Cl)cc4CCc4cc(Br)cnc43)CCN2C(=O)OC2CCCCC2)c(C)n1` (single isomer, unassigned) [Example 375], 2 to 10 nM; for `Cc1nccn1CCCN(Cc1ccccc1)C(=O)[C@H]1CN(C2c3ccc(Cl)cc3CCc3cc(Br)cnc32)CCN1C(=O)OC1CCCCC1` (single isomer, unassigned) [Example 382], 2 to 10 nM.
Regarding `Cn1cncc1CCN(CC1CC1)C(=O)[C@H]1CN([C@H]2c3ccc(Cl)cc3CCc3cc(Br)cnc32)CCN1C(=O)OC(C)(C)C` [305 (11s,2R isomer)], the IC50 is 2 to 10 nM.
On the same count and under the same terms, to `CC(C)(C)OC(=O)N1CCC(C2c3ccc(Cl)cc3CCc3cc(Br)cnc32)CC1C(=O)N(CCCn1ccnc1)Cc1ccccc1` (stereo not shown) [Example 88] belongs 2 to 300 nM; to `CC(C)(C)OC(=O)N1CCN(C2c3ccc(Cl)cc3CCc3cc(Br)cnc32)C[C@@H]1C(=O)N(CCCn1ccnc1)Cc1ccncc1` (stereo partly shown) [Example 116], 2 to 10 nM; to `CC(C)(C)OC(=O)N1CCN(C2c3ccc(Cl)cc3CCc3cc(Br)cnc32)C[C@@H]1C(=O)N(CCCn1ccnc1)Cc1cccnc1` (stereo partly shown) [Example 117], 2 to 10 nM.
Still for that read-out and setting: for `CC(C)(C)OC(=O)N1CCN([C@@H]2c3ccc(Cl)cc3CCc3cc(Br)cnc32)C[C@@H]1C(=O)N(CCCn1ccnc1)Cc1ccccc1` [Example 160] the value was 2 to 10 nM; for `O=C([C@H]1CN([C@H]2c3ccc(Cl)cc3CCc3cc(Br)cnc32)CCN1C(=O)OC1CCCCC1)N(CCCn1ccnc1)Cc1ccccc1` [Example 170], 2 to 10 nM; for `CC(C)COC(=O)N1CCN([C@@H]2c3ccc(Cl)cc3CCc3cc(Br)cnc32)C[C@@H]1C(=O)N(CCCn1ccnc1)Cc1ccccc1` [Example 184], 2 to 10 nM.
As for `O=C([C@H]1CN([C@H]2c3ccc(Cl)cc3CCc3cccnc32)CCN1C(=O)OC1CCCCC1)N(CCCn1ccnc1)Cc1ccccc1` [Example 186], the IC50 lay in the range of 2 to 10 nM.
The same measure, in the same setting: to `CC(C)OC(=O)N1CCN([C@@H]2c3ccc(Cl)cc3CCc3cccnc32)C[C@@H]1C(=O)N(CCCn1ccnc1)Cc1ccccc1` [Example 187] belongs 2 to 10 nM.

System in the next series: not given
Assay: not given
Details: not given
As to `O=C(NCCC(c1ccc(Cl)cc1)n1ccnc1)[C@H]1CN(C2c3ccc(Cl)cc3CCc3cc(Br)cnc32)CCN1C(=O)NC1CCCCC1` (stereo partly shown) [Example 5], the melting point was 138 to 140 °C.
Same read-out and setting: to `CC(C)(CCNC(=O)[C@H]1CN([C@H]2c3ccc(Cl)cc3CCc3cc(Br)cnc32)CCN1C(=O)Cc1cc[n+]([O-])cc1)n1ccnc1` [Example 6] belongs 115 to 117 °C.
Still for that read-out and setting: for `CC(C)(CCNC(=O)[C@H]1CN([C@@H]2c3ccc(Cl)cc3CCc3cc(Br)cnc32)CCN1C(=O)CC1CCN(C(N)=O)CC1)n1ccnc1` [Example 9] the value was 150 to 153 °C.
Consider `CC(C)(C)NC(=O)N1CCN([C@H]2c3ccc(Cl)cc3CCc3cc(Br)cnc32)C[C@@H]1C(=O)NCCC(C)(C)n1ccnc1` [Example 10], for which the melting point is 139 to 142 °C.
As for `CC(C)(C)NC(=O)N1CCN([C@H]2c3ccc(Cl)cc3CCc3cc(Br)cnc32)C[C@@H]1C(=O)NCCC1(n2ccnc2)CC1` [Example 12], the melting point was in the range of 136 to 139 °C.
Same read-out and setting: to `CC(C)(C)NC(=O)N1CCN([C@@H]2c3ccc(Cl)cc3CCc3cc(Br)cnc32)C[C@@H]1C(=O)NCCC1(n2ccnc2)CC1` [Example 13] belongs 106 to 110 °C.
The compound `CC(C)NC(=O)N1CCN(C2c3ccc(Cl)cc3CCc3cc(Br)cnc32)CC1C(=O)NCCC1(n2ccnc2)CC1` (stereo not shown) [Example 14] had a melting point of 133 to 139 °C.
Same read-out and setting: to `CN(C)C(=O)N1CCN(C2c3ccc(Cl)cc3CCc3cc(Br)cnc32)CC1C(=O)NCCC(C)(C)n1ccnc1` (stereo not shown) [Example 18] belongs 139 to 142 °C; to `CC(CCNC(=O)[C@H]1CN(C2c3ccc(Cl)cc3CCc3cc(Br)cnc32)CCN1C(=O)NC1CCCCC1)n1ccnc1` (stereo partly shown) [Example 19], 133 to 138 °C.
In turn, `CC(C)(CNC(=O)[C@H]1CN(C2c3ccc(Cl)cc3CCc3cc(Br)cnc32)CCN1C(=O)NC1CCCCC1)c1cnc[nH]1` (stereo partly shown) [Example 21] returned a melting point of 150 to 154 °C.
On the same count and under the same terms, to `O=C(NCC1(c2cnc[nH]2)CC1)[C@H]1CN(C2c3ccc(Cl)cc3CCc3cc(Br)cnc32)CCN1C(=O)NC1CCCCC1` (stereo partly shown) [Example 22] belongs 156 to 158 °C.
Same read-out and setting: for `NC(=O)[C@H](Cc1cn(C(=O)NC2CCCCC2)cn1)NC(=O)[C@H]1CN(C2c3ccc(Cl)cc3CCc3cc(Br)cnc32)CCN1C(=O)NC1CCCCC1` (stereo partly shown) [Example 24] the value was 164 to 167 °C.
Same read-out and setting: to `Cn1cncc1CCNC(=O)[C@H]1CN(C2c3ccc(Cl)cc3CCc3cc(Br)cnc32)CCN1C(=O)OCc1ccccc1` (stereo partly shown) [Example 26] belongs 111.8 to 114.5 °C; to `CCn1cncc1CCNC(=O)[C@H]1CN(C2c3ccc(Cl)cc3CCc3cc(Br)cnc32)CCN1C(=O)OC(C)(C)C` (stereo partly shown) [Example 40], 54 to 58 °C; to `CCCn1cncc1CCNC(=O)C1CN(C2c3ccc(Cl)cc3CCc3cc(Br)cnc32)CCN1C(=O)OC(C)(C)C` (stereo not shown) [Example 41], 116 to 123 °C.
The compound `CC(C)n1cncc1CCNC(=O)[C@H]1CN(C2c3ccc(Cl)cc3CCc3cc(Br)cnc32)CCN1C(=O)OC(C)(C)C` (stereo partly shown) [Example 42] came in with a melting point of 98 to 101 °C.
Still for that read-out and setting: to `CC(C)Cn1cncc1CCNC(=O)[C@H]1CN(C2c3ccc(Cl)cc3CCc3cc(Br)cnc32)CCN1C(=O)OC(C)(C)C` (stereo partly shown) [Example 43] belongs 120 to 122 °C; to `CC(C)(C)OC(=O)N1CCN(C2c3ccc(Cl)cc3CCc3cc(Br)cnc32)C[C@@H]1C(=O)NCCc1cncn1CCc1ccccc1` (stereo partly shown) [Example 44], 101 to 103 °C.
On the same count and under the same terms, to `CN(CCCn1ccnc1)C(=O)[C@H]1CN(C2c3ccc(Cl)cc3CCc3cc(Br)cnc32)CCN1C(=O)NC1CCCCC1` (stereo partly shown) [Example 110] belongs 118.4 °C; to `CCN(CCCn1ccnc1)C(=O)[C@H]1CN(C2c3ccc(Cl)cc3CCc3cc(Br)cnc32)CCN1C(=O)NC1CCCCC1` (stereo partly shown) [Example 111], 79.3 °C; to `CCCN(CCCn1ccnc1)C(=O)[C@H]1CN(C2c3ccc(Cl)cc3CCc3cc(Br)cnc32)CCN1C(=O)NC1CCCCC1` (stereo partly shown) [Example 112], 63.8 to 67.4 °C.
Same read-out and setting: to `O=C(NCCn1nc2ccccc2n1)[C@H]1CN(C2c3ccc(Cl)cc3CCc3cc(Br)cnc32)CCN1C(=O)NC1CCCCC1` (stereo partly shown) [Example 291] belongs 132 to 135 °C.
On to `O=C(NCCn1nnc2ccccc21)[C@H]1CN(C2c3ccc(Cl)cc3CCc3cc(Br)cnc32)CCN1C(=O)NC1CCCCC1` (stereo partly shown) [Example 292], for which the melting point was 127 to 132 °C.
On the same count and under the same terms, to `O=C(NCCc1cnc(C(F)(F)F)[nH]1)[C@H]1CN(C2c3ccc(Cl)cc3CCc3cc(Br)cnc32)CCN1C(=O)NC1CCCCC1` (stereo partly shown) [Example 294] belongs 173.8 °C; to `O=C(NCCCn1ccnc1CO)[C@H]1CN(C2c3ccc(Cl)cc3CCc3cc(Br)cnc32)CCN1C(=O)NC1CCCCC1` (stereo partly shown) [Example 296], 141.2 °C; to `O=C(NCCc1cnc(O)[nH]1)[C@H]1CN(C2c3ccc(Cl)cc3CCc3cc(Br)cnc32)CCN1C(=O)NC1CCCCC1` (stereo partly shown) [Example 297], 182.1 to 219.4 °C.
Same read-out and setting: to `CCn1cncc1CCN(CC1CC1)C(=O)[C@H]1CN(C2c3ccc(Cl)cc3CCc3cc(Br)cnc32)CCN1C(=O)OC(C)(C)C` (stereo partly shown) [Example 304] belongs 103.7 to 107.5 °C; to `Cn1cncc1CCN(CC1CC1)C(=O)[C@H]1CN([C@H]2c3ccc(Cl)cc3CCc3cccnc32)CCN1C(=O)OC(C)(C)C` [Example 306], 100 to 114 °C.
Still for that read-out and setting: for `CCn1cncc1CCN(CC1CC1)C(=O)[C@H]1CN([C@H]2c3ccc(Cl)cc3CCc3cccnc32)CCN1C(=O)OC(C)(C)C` [Example 307] the value was 89.1 to 96.5 °C.
`CCn1cncc1CCN(CC1CC1)C(=O)[C@H]1CN([C@@H]2c3ccc(Cl)cc3CCc3cccnc32)CCN1C(=O)OC(C)(C)C` [Example 308] yielded a melting point of 89.1 to 96.5 °C.
On the same count and under the same terms, for `Cc1cn(CCCN(Cc2ccccc2)C(=O)[C@H]2CN(C3c4ccccc4CCc4cc(Cl)cnc43)CCN2C(=O)OC2CCCCC2)cn1` (stereo partly shown) [Example 395] the value was 91 to 107 °C.
